Structures can show the parent of a compound that is named as a salt.
Target: protein kinase C
Experiment: in vitro protein kinase C inhibition: protein kinase-induced incorporation of 32P from [γ-32P]ATP into histone
Format: biochemical
Conditions: concentration of test compound which reduces by 50% the protein kinase-induced incorporation of 32P from [γ-32P]ATP into histone
From the text: Research Comm. 19 (1979) 1218. The IC50 values in the following Table are that concentration of test compound which reduces by 50% the protein kinase-induced incorporation of ^32P from [γ-^32P]ATP into histone. Table

**Q.** For CN1C[C@H]2Cc3c(C4=C(c5cn(C)c6ccccc56)C(=O)NC4=O)c4ccccc4n3C[C@@H]2C1 (relative stereo) [Example 14, trans-3-(2,3,3a,4,11,11a-hexahydro-2-methyl-1H-pyrrolo[3',4':4,5]pyrido[1,2-a]indol-10-yl)-4-(1-methyl-3-indolyl)-1H-pyrrole-2,5-dione hydrochloride], which IC50 is on record?
**A.** Its IC50 is 7 nM.

**Q.** For Cn1cc(C2=C(c3c4n(c5ccccc35)CCC3(CCNC3)C4)C(=O)NC2=O)c2ccccc21 (stereo not drawn) [Example 1, 3-[6,7,8,9-tetrahydrospiro[pyrido[1,2-a]indole-8,3'-pyrrolidin-10-yl]-4-(1-methyl-3-indolyl)-pyrrole-2,5-dione trifluoroacetate], which IC50 is on record?
**A.** The IC50 was 40 nM.

**Q.** With CN1C[C@@H]2Cc3c(C4=C(c5cn(C)c6ccccc56)C(=O)NC4=O)c4ccccc4n3C[C@@H]2C1 (relative stereo) [Example 6, cis-3-[2,3,3a,4,11,11a-hexahydro-2-methyl-1H-pyrrolo[3',4':4,5]pyrido-[1,2-a]indol-10-yl]-4-(1-methyl-3-indolyl)-1H-pyrrole-2,5-dione hydrochloride] as the molecule, how does the IC50 read?
**A.** The IC50 was 30 nM.
